Patent US10316079B2, “Monoclonal antibody against muramyl peptides” (priority 2012, dated 2019)

Tests used:
[1] = tested on: binding of 2E7 to N-acetylmuramyl-L-alanyl-D-isoglutamine conjugated to OVA; test: Competitive ELISA for antigen specificity of 2E7; parameters: species or system mouse; settings: concentration dependent, compared with N-acetylmuramyl-L-alanyl-D-isoglutamine
From the text: To enhance the antigenicity of the MDPs, these molecules were conjugated to the human serum albumin (HSA) using a linker molecule. The carboxylic acid moiety of MDPs was first coupled to N-Boc-ethylenediamine, and then the Boc protection group was removed and the resulting amine was linked to HSA with glutaraldehyde. […] The MDP-HSA conjugates were then used to immunize BALB/c mice. Serum antigen-specific titers of the immunized mice were examined by enzyme-linked immunosorbent assay (ELISA) against MDPs conjugated to ovalbumin (OVA) using the same linkage strategy as described above. Generation of hybridoma cell lines, screening of antibody-producing clones, preparation and purification of mAbs, and mAb isotyping were carried out by following standard protocols. Antigen specificity of a mAb was determined using competitive ELISA to test the ability of different MDPs and constituent moieties to inhibit the binding of a mAb to the MDP originally used as antigen for immunization.

[2] = tested on: Escherichia coli; test: MPs released into culture supernatant with amoxicillin, competitive ELISA using 2E7; format: cell-based; settings: 40 μg per ml amoxicillin added at OD600=1.5; vs untreated culture
Procedure: (§1) Power Fit equation y=a*(x−b)^c using CurveExpert Basic. The standard curve was used to determine the peptidoglycan to concentration in a sample. […] Both bacteria were grown to OD600=1.5. Each culture was divided into two, and one treated with 40 μg/ml amoxicillin (Atex) and the other untreated. Aliquots were collected at the indicated times and the amount of MPs in the supernatant was determined by competitive ELISA. […] After removing unbound antibodies by PBS washes, the cells were incubated with a FITC-labeled anti-mouse IgG Ab before fluorescence microscopic examination.
(§2) For this test, Gram-positive bacterium Staphylococcus aureus, which has a thick peptidoglycan layer, and […] Escherichia coli, which has a thin peptidoglycan layer, were selected and grown in the presence or absence of amoxicillin. The culture was grown to a density of OD600=1.5 and then divided into two equal aliquots. To one aliquot, amoxicillin was added to a final concentration of 40 μg per ml, and to the other aliquot, no drug was added. Both cultures were allowed to continue to grow. Aliquots of cultures were collected at timed intervals and cells were removed by centrifugation. The amount of MPs in the supernatant was determined by competitive ELISA using 2E7.

[3] = tested on: Staphylococcus aureus; test: as above; format: cell-based; settings: 40 μg per ml amoxicillin added at OD600=1.5; vs untreated culture
Procedure: as §1, §2

[4] = tested on: bacteria of the mouse microbiota; test: Blood MP level in mice fed amoxicillin, competitive ELISA using 2E7; format: in vivo; settings: amoxicillin 100 mg/kg fed at 12-h intervals, 4 h after each feeding
Procedure: Amoxicillin was administered orally to 50 mice at 12-h intervals and three mice were sacrificed every 4 h to collect blood for peptidoglycan quantification by ELISA. […] Serial blood samples were taken. Time for blood draw and IV injection are indicated.
The MP level in serum was determined by competitive ELISA using an example of the antibody of the present disclosure, i.e. 2E7.

| Molecule | inhibition of 2E7 binding to N-acetylmuramyl-L-alanyl-D-isoglutamine conjugated to OVA [1] | molecules in culture medium that inhibit 2E7 binding to N-acetylmuramyl-L-alanyl-D-isoglutamine (MPs) [2] | molecules in culture medium that inhibit 2E7 binding to N-acetylmuramyl-L-alanyl-D-isoglutamine (MPs) [3] | increase in the blood MP level [4] |
| --- | --- | --- | --- | --- |
| CC(=O)N[C@H]1C(O)O[C@H](CO)[C@@H](O)[C@@H]1O[C@H](C)C(=O)N[C@H](C)C(=O)N[C@H](CCC(=O)O)C(=O)O (stereo partly drawn) [N-acetylmuramyl-L-alanyl-D-glutamate] | almost as effectively as N-acetylmuramyl-L-alanyl-D-isoglutamine |  |  |  |
| CC1(C)S[C@@H]2[C@H](NC(=O)[C@H](N)c3ccc(O)cc3)C(=O)N2[C@H]1C(=O)O [amoxicillin] |  | sharp increase | sharp increase | 20-60% |
| CC(NC(=O)C(C)OC1C(N)C(O)OC(CO)C1O)C(=O)NC(CCC(=O)O)C(=O)O [muramyl-L-alanyl-D-glutamate] | almost as effectively as N-acetylmuramyl-L-alanyl-D-isoglutamine |  |  |  |
| muramyl-L-alanyl-D-isoglutamine | almost as effectively as N-acetylmuramyl-L-alanyl-D-isoglutamine |  |  |  |
